Data published in patent US11459318B2, “Pesticidally active pyrrole derivatives” (Syngenta Participations AG, priority 2017, dated 2022).

Tests used:
Format in all cases: in vivo
[1] = system: Diabrotica balteata (Corn root worm); experiment: Diabrotica balteata (Corn root worm), maize sprouts sprayed, L2 larvae mortality; conditions: 96 h, application rate of 200 ppm, L2 larvae on maize sprouts, assessed 4 days after infestation, read-out: control (mortality)
Experimental: Diabrotica balteata (Corn root worm):
Maize sprouts placed onto an agar layer in 24-well microtiter plates were treated with aqueous test solutions prepared from 10,000 ppm DMSO stock solutions by spraying. After drying, the plates were infested with L2 larvae (6 to 10 per well). The samples were assessed for mortality 4 days after infestation.

[2] = system: Euschistus heros (Neotropical Brown Stink Bug); experiment: Euschistus heros (Neotropical Brown Stink Bug): Feeding/contact activity; conditions: 120 h, application rate of 200 ppm, N2 nymphs on soybean leaves, assessed 5 days after infestation, read-out: control (mortality)
Experimental: Euschistus heros (Neotropical Brown Stink Bug): Feeding/contact activity Soybean leaves on agar in 24-well microtiter plates were sprayed with aqueous test solutions prepared from 10,000 ppm DMSO stock solutions. After drying the leaves were infested with N2 nymphs. The samples were assessed for mortality 5 days after infestation.

[3] = system: Myzus persicae (Green peach aphid); experiment: Myzus persicae (Green peach aphid): Feeding/Contact activity; conditions: foliar, 144 h, application rate of 200 ppm, aphid population of mixed ages on sunflower leaf discs, assessed 6 days after infestation, read-out: control (mortality)
Experimental: Myzus persicae (Green peach aphid): Feeding/Contact activity Sunflower leaf discs were placed onto agar in a 24-well microtiter plate and sprayed with aqueous test solutions prepared from 10,000 ppm DMSO stock solutions. After drying, the leaf discs were infested with an aphid population of mixed ages. The samples were assessed for mortality 6 days after infestation.

[4] = system: Plutella xylostella (Diamond back moth); experiment: Plutella xylostella (Diamond back moth): Feeding/contact activity; conditions: 120 h, application rate of 200 ppm, L2 larvae on artificial diet, assessed 5 days after infestation, read-out: control (mortality)
Experimental: Plutella xylostella (Diamond back moth): Feeding/contact activity
24-well microtiter plates with artificial diet were treated with aqueous test solutions prepared from 10,000 ppm DMSO stock solutions by pipetting. After drying, the plates were infested with L2 larvae (10 to 15 per well). The samples were assessed for mortality 5 days after infestation.

[5] = system: Spodoptera littoralis (Egyptian cotton leaf worm); experiment: Spodoptera littoralis (Egyptian cotton leaf worm): Feeding/contact activity; conditions: foliar, 72 h, application rate of 200 ppm, L1 larvae on cotton leaf discs, assessed 3 days after infestation, read-out: control (mortality)
Experimental: Spodoptera littoralis (Egyptian cotton leaf worm): Feeding/contact activity Cotton leaf discs were placed onto agar in 24-well microtiter plates and sprayed with aqueous test solutions prepared from 10,000 ppm DMSO stock solutions. After drying the leaf discs were infested with five L1 larvae. The samples were assessed for mortality 3 days after infestation.

[6] = system: Tetranychus urticae (Two-spotted spider mite); experiment: Tetranychus urticae (Two-spotted spider mite): Feeding/contact activity; conditions: foliar, 192 h, application rate of 200 ppm, mite population of mixed ages (mobile stages) on bean leaf discs, assessed 8 days after infestation, read-out: control (mortality)
Experimental: Tetranychus urticae (Two-spotted spider mite): Feeding/contact activity
Bean leaf discs on agar in 24-well microtiter plates were sprayed with aqueous test solutions prepared from 10,000 ppm DMSO stock solutions. After drying the leaf discs were infested with a mite population of mixed ages. The samples were assessed for mortality on mixed population (mobile stages) 8 days after infestation.

[7] = system: Thrips tabaci (Onion Thrips); experiment: Thrips tabaci (Onion Thrips): Feeding/Contact activity; conditions: foliar, 144 h, application rate of 200 ppm, thrips population of mixed ages on sunflower leaf discs, assessed 6 days after infestation, read-out: control (mortality)
Experimental: Thrips tabaci (Onion Thrips): Feeding/Contact activity
Sunflower leaf discs were placed on agar in 24-well microtiter plates and sprayed with aqueous test solutions prepared from 10,000 ppm DMSO stock solutions. After drying the leaf discs were infested with a thrips population of mixed ages. The samples were assessed for mortality 6 days after infestation.

Measured: mortality at 200 ppm

Cn1c(C(F)(C(F)(F)F)C(F)(F)C(F)(F)F)cc(Br)c1-n1cc(-c2ccc(Cl)c(C(=O)NC3(C#N)CC3)c2)cn1 (centres unmarked) [Compound 27, 5-[1-[3-bromo-5-[1,2,2,3,3,3-hexafluoro-1-(trifluoromethyl)propyl]-1-methyl-pyrrol-2-yl]pyrazol-4-yl]-2-chloro-N-(1-cyanocyclopropyl)benzamide]
≥ 80%: all assays above

N#CC1(NC(=O)c2cc(-c3cnn(-c4c(Br)cc(C(F)(C(F)(F)F)C(F)(F)F)n4CC(F)(F)F)c3)ccc2Cl)CC1 [Compound 26, 5-[1-[3-bromo-5-[1,2,2,2-tetrafluoro-1-(trifluoromethyl)ethyl]-1-(2,2,2-trifluoroethyl)pyrrol-2-yl]pyrazol-4-yl]-2-chloro-N-(1-cyanocyclopropyl)benzamide]
≥ 80%: all assays above

CN(C(=O)c1cc(-c2cnn(-c3c(Br)cc(C(F)(C(F)(F)F)C(F)(F)F)n3C)c2)ccc1Cl)C1(C#N)CC1 [Compound 21, 5-[1-[3-bromo-1-methyl-5-[1,2,2,2-tetrafluoro-1-(trifluoromethyl)ethyl]pyrrol-2-yl]pyrazol-4-yl]-2-chloro-N-(1-cyanocyclopropyl)-N-methyl-benzamide]
≥ 80%: all assays above

Cn1c(C(F)(C(F)(F)F)C(F)(F)F)cc(C(F)(F)F)c1-n1cc(-c2ccc(Cl)c(C(=O)NC3(C#N)CC3)c2)cn1 [Compound 8, 2-chloro-N-(1-cyanocyclopropyl)-5-[1-[1-methyl-5-[1,2,2,2-tetrafluoro-1-(trifluoromethyl)ethyl]-3-(trifluoromethyl)pyrrol-2-yl]pyrazol-4-yl]benzamide]
not listed: [3] | [6]
≥ 80%: all other assays above

Cn1c(SC(F)(F)F)c(Br)c(Br)c1-n1cc(-c2ccc(Cl)c(C(=O)NC3(C#N)CC3)c2)cn1 [Compound 16, 2-chloro-N-(1-cyanocyclopropyl)-5-[1-[3,4-dibromo-1-methyl-5-(trifluoromethylsulfanyl)pyrrol-2-yl]pyrazol-4-yl]benzamide]
not listed: [2] | [3]
≥ 80%: all other assays above

Cn1c(C(F)(C(F)(F)F)C(F)(F)F)cc(C(N)=S)c1-n1cc(-c2ccc(Cl)c(C(=O)NC3(C#N)CC3)c2)cn1 [Compound 23, 5-[1-[3-carbamothioyl-1-methyl-5-[1,2,2,2-tetrafluoro-1-(trifluoromethyl)ethyl]pyrrol-2-yl]pyrazol-4-yl]-2-chloro-N-(1-cyanocyclopropyl)benzamide]
not listed: [7]
≥ 80%: all other assays above

CCN(C(=O)c1cc(-c2cnn(-c3c(Br)cc(C(F)(C(F)(F)F)C(F)(F)F)n3C)c2)ccc1Cl)C1CC1 [Compound 22, 5-[1-[3-bromo-1-methyl-5-[1,2,2,2-tetrafluoro-1-(trifluoromethyl)ethyl]pyrrol-2-yl]pyrazol-4-yl]-2-chloro-N-cyclopropyl-N-ethyl-benzamide]
not listed: [7]
≥ 80%: all other assays above

Cn1c(C(F)(c2cc(Cl)cc(Cl)c2)C(F)(F)F)cc(Cl)c1-n1cc(-c2ccc(Cl)c(C(=O)NC3(C#N)CC3)c2)cn1 (centres unmarked) [Compound 30, 2-chloro-5-[1-[3-chloro-5-[1-(3,5-dichlorophenyl)-1,2,2,2-tetrafluoro-ethyl]-1-methyl-pyrrol-2-yl]pyrazol-4-yl]-N-(1-cyanocyclopropyl)benzamide]
not listed: [3] | [6]
≥ 80%: all other assays above

Cn1c(-n2cc(-c3ccc(Cl)c(C(=O)NC4(C#N)CC4)c3)cn2)ccc1C(F)(C(F)(F)F)C(F)(F)F [Compound 1, 2-chloro-N-(1-cyanocyclopropyl)-5-[1-[1-methyl-5-[1,2,2,2-tetrafluoro-1-(trifluoromethyl)ethyl]pyrrol-2-yl]pyrazol-4-yl]benzamide]
not listed: [7]
≥ 80%: all other assays above

Cn1c(C(F)(c2cc(F)cc(F)c2)C(F)(F)F)cc(Br)c1-n1cc(-c2ccc(Cl)c(C(=O)NC3(C#N)CC3)c2)cn1 (centres unmarked) [Compound 17, 5-[1-[3-bromo-5-[1-(3,5-difluorophenyl)-1,2,2,2-tetrafluoro-ethyl]-1-methyl-pyrrol-2-yl]pyrazol-4-yl]-2-chloro-N-(1-cyanocyclopropyl)benzamide]
not listed: [2] | [3]
≥ 80%: all other assays above

Cn1c(C(F)(C(F)(F)F)C(F)(F)F)cc(Br)c1-c1cc(-c2ccc(Cl)c(C(=O)NC3(C#N)CC3)c2)on1 [Compound 6, 5-[3-[3-bromo-1-methyl-5-[1,2,2,2-tetrafluoro-1-(trifluoromethyl)ethyl]pyrrol-2-yl]isoxazol-5-yl]-2-chloro-N-(1-cyanocyclopropyl)benzamide]
not listed: [7]
≥ 80%: all other assays above

Cc1cc(C(F)(C(F)(F)F)C(F)(F)F)n(C)c1-n1cc(-c2ccc(Cl)c(C(=O)NC3(C#N)CC3)c2)cn1 [Compound 11, 2-chloro-N-(1-cyanocyclopropyl)-5-[1-[1,3-dimethyl-5-[1,2,2,2-tetrafluoro-1-(trifluoromethyl)ethyl]pyrrol-2-yl]pyrazol-4-yl]benzamide]
not listed: [3]
≥ 80%: all other assays above

Cn1c(C(F)(F)C(F)(F)F)cc(Cl)c1-n1cc(-c2ccc(Cl)c(C(=O)NC3(C#N)CC3)c2)cn1 [Compound 33]
not listed: [7]
≥ 80%: all other assays above

Cn1c(C(F)(C(F)(F)F)C(F)(F)F)cc(I)c1-n1cc(-c2ccc(Cl)c(C(=O)NC3(C#N)CC3)c2)cn1 [Compound 34, 2-chloro-N-(1-cyanocyclopropyl)-5-[1-[3-iodo-1-methyl-5-[1,2,2,2-tetrafluoro-1-(trifluoromethyl)ethyl]pyrrol-2-yl]pyrazol-4-yl]benzamide]
not listed: [3]
≥ 80%: all other assays above
